The record followed here is patent US9346812B2, “Substituted pyrrolopyrimidine compounds, compositions thereof, and methods of treatment therewith” (Signal Pharmaceutical LLC, priority 2013, dated 2016).

The assay deals with CAL51 cell proliferation. Description: Cell Titer Glo Proliferation Assay (CAL51). The assay is classed as cell-based, human. The note with it: Homo sapiens, CAL-51; CAL51 cell proliferation, 72 h, Cell Titer Glo luminescence; read-out: Act. Level. The gist of the method: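 CAL51 triple-negative breast cancer cells in DMEM or RPMI with 10% FBS were treated after overnight culture with serially diluted compound at 0.2% final DMSO. After 72 h, viability was read as CellTiter-Glo luminescence.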
On the technique in general: Cellular ATP, detected with luciferase, serves as a proxy for viable cell number.

Some results are limits rather than exact numbers.

Regarding `CNC(=O)c1ccc(Nc2nc(OC3CCCC3)c3c(-c4ccc5nc(N)[nH]c5c4)c[nH]c3n2)c(OC)c1` [Example 110, 4-(5-(2-amino-1H-benzo[d]imidazol-6-yl)-4-(cyclopentyloxy)-7H-pyrrolo[2,3-d]pyrimidin-2-ylamino)-3-methoxy-N-methylbenzamide], the IC50 was less than 100 nM. As for `CNC(=O)c1ccc(Nc2nc(OC3CCCC3)c3c(-c4ccc(-c5nnc[nH]5)cc4)c[nH]c3n2)c(OC)c1` [Example 28, 4-(5-(4-(4H-1,2,4-triazol-3-yl)phenyl)-4-(cyclopentyloxy)-7H-pyrrolo[2,3-d]pyrimidin-2-ylamino)-3-methoxy-N-methylbenzamide], the IC50 was less than 100 nM.

Turning to `Cc1cc(C(=O)N(C)C)ccc1Nc1nc(OC2CCOCC2)c2c(-c3nnco3)c[nH]c2n1` [Example 111, 4-(5-(1,3,4-oxadiazol-2-yl)-4-(tetrahydro-2H-pyran-4-yloxy)-7H-pyrrolo[2,3-d]pyrimidin-2-ylamino)-N,N,3-trimethylbenzamide], the IC50 fell in the range of 1000 to 10000 nM. The same measure for `CNC(=O)c1ccc(OC)c(Nc2nc(OC3CCOCC3)c3c(-c4ccc5nc(C)oc5c4)c[nH]c3n2)c1` [Example 181, 4-methoxy-N-methyl-3-(5-(2-methylbenzo[d]oxazol-6-yl)-4-(tetrahydro-2H-pyran-4-yloxy)-7H-pyrrolo[2,3-d]pyrimidin-2-ylamino)benzamide]: 100 to 400 nM; for `CNC(=O)c1ccc(Nc2nc(O[C@H]3CC[C@@](C)(O)CC3)c3c(-c4ccc5nc(C)oc5c4)c[nH]c3n2)c(OC)c1` [Example 206, 4-(4-((1s,4s)-4-hydroxy-4-methylcyclohexyloxy)-5-(2-methylbenzo[d]oxazol-6-yl)-7H-pyrrolo[2,3-d]pyrimidin-2-ylamino)-3-methoxy-N-methylbenzamide]: less than 100 nM; for `CNC(=O)c1ccc(Nc2nc(OC3CCOCC3)c3c(-c4ccc(-c5nc(C)c(C)[nH]5)cc4)c[nH]c3n2)c(OC)c1` [Example 197, 4-(5-(4-(4,5-dimethyl-1H-imidazol-2-yl)phenyl)-4-(tetrahydro-2H-pyran-4-yloxy)-7H-pyrrolo[2,3-d]pyrimidin-2-ylamino)-3-methoxy-N-methylbenzamide]: 100 to 400 nM.

On to `COc1cc(C(=O)NC2COC2)ccc1Nc1nc(O[C@H]2CC[C@@](C)(O)CC2)c2c(-c3ccc4nc(C)oc4c3)c[nH]c2n1` [Example 314, 4-(4-((1s,4s)-4-hydroxy-4-methylcyclohexyloxy)-5-(2-methylbenzo[d]oxazol-6-yl)-7H-pyrrolo[2,3-d]pyrimidin-2-ylamino)-3-methoxy-N-(oxetan-3-yl)benzamide], for which the IC50 is less than 100 nM.

Consider `CNC(=O)c1ccc(Nc2nc(O[C@H]3CCOC3)c3c(-c4ccc5nc(C)oc5c4)c[nH]c3n2)c(OC)c1` [Example 169, (S)-3-methoxy-N-methyl-4-(5-(2-methylbenzo[d]oxazol-6-yl)-4-(tetrahydrofuran-3-yloxy)-7H-pyrrolo[2,3-d]pyrimidin-2-ylamino)benzamide], for which the IC50 is less than 100 nM. Turning to `CNC(=O)c1ccc(Nc2nc(OC3CCCC3)c3c(-c4cccc(OC)c4)c[nH]c3n2)c(OC)c1` [Example 60, 4-(4-(cyclopentyloxy)-5-(3-methoxyphenyl)-7H-pyrrolo[2,3-d]pyrimidin-2-ylamino)-3-methoxy-N-methylbenzamide], the IC50 was in the range of 100 to 400 nM. Then `COc1cc(C(=O)NC2COC2)ccc1Nc1nc(OC2CCCC2)c2c(-c3ccc4nc(C)oc4c3)c[nH]c2n1` [Example 255, 4-(4-(cyclopentyloxy)-5-(2-methylbenzo[d]oxazol-6-yl)-7H-pyrrolo[2,3-d]pyrimidin-2-ylamino)-3-methoxy-N-(oxetan-3-yl)benzamide], with 100 to 400 nM; and `COc1cc(C(=O)N2CCOCC2)ccc1Nc1nc(OC2CCCC2)c2c(-c3ccc4nc(C)oc4c3)c[nH]c2n1` [Example 96, (4-(4-(cyclopentyloxy)-5-(2-methylbenzo[d]oxazol-6-yl)-7H-pyrrolo[2,3-d]pyrimidin-2-ylamino)-3-methoxyphenyl)(morpholino) methanone], with 400 to 1000 nM; and `CCOc1ccc(-c2c[nH]c3nc(Nc4ccc(C(=O)NC)cc4OC)nc(O[C@H]4CCOC4)c23)cn1` [Example 161, (S)-4-(5-(6-ethoxypyridin-3-yl)-4-(tetrahydrofuran-3-yloxy)-7H-pyrrolo[2,3-d]pyrimidin-2-ylamino)-3-methoxy-N-methylbenzamide], with 100 to 400 nM. The same measure for `COc1cc(S(C)(=O)=O)c(F)cc1Nc1nc(OC2CCCC2)c2c(-c3ccc4nc(C)oc4c3)c[nH]c2n1` [Example 261, 4-(cyclopentyloxy)-N-(5-fluoro-2-methoxy-4-(methylsulfonyl)phenyl)-5-(2-methylbenzo[d]oxazol-6-yl)-7H-pyrrolo[2,3-d] pyrimidin-2-amine]: 100 to 400 nM. Then `CNC(=O)c1ccc(Nc2nc(OC3CCCC3)c3c(-c4cccc(CO)c4)c[nH]c3n2)c(OC)c1` [Example 26, 4-(4-(cyclopentyloxy)-5-(3-(hydroxymethyl)phenyl)-7H-pyrrolo[2,3-d]pyrimidin-2-ylamino)-3-methoxy-N-methylbenzamide], with less than 100 nM; and `COc1cc(C(=O)NC[C@@H](C)O)ccc1Nc1nc(OC2CCCC2)c2c(-c3ccc4nc(C)oc4c3)c[nH]c2n1` [Example 230, (R)-4-(4-(cyclopentyloxy)-5-(2-methylbenzo[d]oxazol-6-yl)-7H-pyrrolo[2,3-d]pyrimidin-2-ylamino)-N-(2-hydroxypropyl)-3-methoxybenzamide], with 100 to 400 nM.

Consider `COc1cc(C(=O)N2CCCC2)ccc1Nc1nc(OC2CCCC2)c2c(-c3ccc4nc(C)oc4c3)c[nH]c2n1` [Example 249, (4-(4-(cyclopentyloxy)-5-(2-methylbenzo[d]oxazol-6-yl)-7H-pyrrolo[2,3-d]pyrimidin-2-ylamino)-3-methoxyphenyl) (pyrrolidin-1-yl)methanone], for which the IC50 fell in the range of 100 to 400 nM. The same measure for `COc1cc(C(=O)NC2COC2)ccc1Nc1nc(OC2CCC2)c2c(-c3cnn(C)c3)c[nH]c2n1` [Example 302, 4-(4-cyclobutoxy-5-(1-methyl-1H-pyrazol-4-yl)-7H-pyrrolo[2,3-d]pyrimidin-2-ylamino)-3-methoxy-N-(oxetan-3-yl) benzamide]: 100 to 400 nM. Consider `CNC(=O)c1ccc(Nc2nc(OC3CCCC3)c3c(-c4ccc(-c5ccn[nH]5)cc4)c[nH]c3n2)c(OC)c1` [Example 41, 4-(5-(4-(1H-pyrazol-5-yl)phenyl)-4-(cyclopentyloxy)-7H-pyrrolo[2,3-d]pyrimidin-2-ylamino)-3-methoxy-N-methylbenzamide], for which the IC50 fell in the range of 100 to 400 nM. For the compound `COc1nc(Nc2ccc(-c3cn[nH]c3)cc2)nc2[nH]cc(-c3ccc4nc(C)oc4c3)c12` [Example 88, N-(4-(1H-pyrazol-4-yl)phenyl)-4-methoxy-5-(2-methylbenzo[d]oxazol-6-yl)-7H-pyrrolo[2,3-d] pyrimidin-2-amine], the IC50 was in the range of 100 to 400 nM. The same measure for `CNC(=O)c1ccc(Nc2nc(OC3CCOCC3)c3c(-c4nccn4C)c[nH]c3n2)c(OC)c1` [Example 172, 3-methoxy-N-methyl-4-(5-(1-methyl-1H-imidazol-2-yl)-4-(tetrahydro-2H-pyran-4-yloxy)-7H-pyrrolo[2,3-d]pyrimidin-2-ylamino)benzamide]: 1000 to 10000 nM.
